# Source: US9585957B2, “Adenosine receptor agonists and antagonists to modulate T cell responses” (THE JOHNS HOPKINS UNIVERSITY, priority 2007, dated 2017)
# Key:
# [1] = test system: 6.5+ T cells in C3HA mice; test: Ex vivo tolerance studies: in vitro rechallenge of T cells harvested from vehicle- or CGS-treated C3HA mice
# Procedure: 1.2×10^6 clonotypic 6.5^+ T cells were adoptive transferred into C3HA recipient mice as described above. On the second or third day (as noted) after transfer the splenocytes and lymphocytes were harvested and pooled. 2×10^5 of the pooled cells were incubated in 96-well round bottom plates with varying concentrations of HA class II peptide for 24 hours. A portion of the supernatant were withdrawn and later assayed for IL-2 and IFN-γ productions by ELISA. The wells were then pulsed with [^3H]thymidine for 16 hours and proliferation determined by tritium incorporation, as described above. All samples were performed in triplicate.
# A.E7 T cells = test: Anergy induction in A.E7 T cells: incubation with APCs, PCC and CGS, then rechallenge without CGS; assay type: cell-based
# Procedure: A.E7 is a clonotypic CD4^+, Th1 T cell clone specific for pigeon cytochrome c (PCC) and is maintained as previously described (Powell et al. J Immunol. 1999; 162:2775-2784).
# Studies were conducted to determine the effects of A2a receptor stimulation on T cell function. A.E7 is a clonotypic CD4′, Th1 T cell clone specific for pigeon cytochrome c (PCC) and is maintained as previously described (Powell, J. D., Lerner, C. G. & Schwartz, R. H. Inhibition of cell cycle progression by rapamycin induces T cell clonal anergy even in the presence of costimulation. J Immunol 162, 2775-84 (1999)). A.E7s were rendered anergic with anti-CD3 or by incubation with APC, PCC and […] CGS-21680. For antibody induced anergy, 6-well plates were previously coated with anti-CD3 three hours prior to stimulation and washed with PBS. For mock stimulations, the well was not coated with anti-CD3. A.E7s were incubated in the coated well overnight at 37° C., then harvested and washed extensively and rested (24 hours for CAMP measurement, 4-6 days for proliferation and cytokine production). […] A.E7s were then isolated via a ficoll gradient, washed extensively, and immediately rechallenged for proliferation and cytokine production. To assess proliferation to PCC, T cells were extensively washed and 5×10^6 cells were added to 50×10^4 irradiated BIO.A splenocytes and increasing doses of PCC in triplicate in a 96-well flat-bottomed plate. After 48 hours, cells were pulsed with [^3H] thymidine and harvested 16 hrs later. Tritium incorporation was determined by a Packard Matrix 96 direct beta counter (Packard bioscience). For cytokine production, a 96-well round-bottom plate was preincubated with […] anti-CD3 for 3 hours. […] All conditions were done in triplicate and were cultured overnight. Supernatant was collected and assessed for cytokine levels (eBioscience for IL-2, IFN-y, TNF-a; R&D Systems for GM-CSF) as per manufacturers' instructions. For each sample, multiple dilutions of the supernatant were assayed and concentration was determined based upon the dilution that best fit the most linear aspect of the standard curve. For CD25 measurements, the cells used for cytokine production were stained with anti-CD25, harvested and measured by flow cytometry.
# Next, the T cells were isolated and rechallenged with APCs and peptide in the absence of CGS (secondary stimulation).
# [2] = test system: ERK phosphorylation, jun B, AP-1; test: Western blot for phospho-ERK and jun B, and EMSA for AP-1, after T cell stimulation with or without CGS; assay type: cell-based, mice
# Procedure: For phospho-ERK and total ERK Western blots, splenocytes from 6.5^+ mice were stimulated overnight with 10 ug/mL HA class II peptide then harvested and enriched for CD4^+ T cells. CD4^+ purified T cells were then stimulated in 500 uL with soluble anti-CD3 (10 ug/mL) and soluble anti-CD28 (1:20 dilution).
# Nuclear extracts from CD4^+ purified 6.5^+ T cells that were prepared. The AP-1 probe was: 5′-CGCTTGATGACTCAGCCGGAA-3′. The NFkB probe was: 5′-AGTTGAGGGGACTTTCCCAGGC-3′.
smiles,measurement,setting,value
"CCNC(=O)[C@H]1O[C@@H](n2cnc3c(N)nc(NCCc4ccc(CCC(=O)O)cc4)nc32)[C@H](O)[C@@H]1O [CGS, 2-p-(2-carboxyethyl)phenethyl-amino-5-N-ethyl-carboxamidoadenosine]","proliferation and cytokine production of harvested cells, two days after adoptive transfer","[1]; CGS-treated versus vehicle-treated mice, no CGS during rechallenge",equal proliferation and cytokine production
same,"proliferation following in vitro stimulation, Day 3","[1]; T cells from CGS-treated versus vehicle-treated mice, no CGS during rechallenge (FIG. 4b)",significant reduction in proliferation
same,"IFN-γ production following in vitro stimulation, Day 3","[1]; T cells from CGS-treated versus vehicle-treated mice, no CGS during rechallenge (FIG. 4c)",significant reduction
same,response upon rechallenge after mock induction,"A.E7 T cells; 1 μM CGS during mock induction, no peptide present, rechallenge without CGS (FIG. 2a)",no effect
same,proliferation upon rechallenge,"A.E7 T cells; 1 μM CGS with peptide during initial stimulation, rechallenge without CGS (FIG. 2b)",reduced proliferation
same,IFN-γ production upon rechallenge,"A.E7 T cells; 1 μM CGS with peptide during initial stimulation, rechallenge without CGS (FIG. 2c)",reduced
same,induction of anergy in the presence of exogenous IL-2,"A.E7 T cells; peptide, exogenous IL-2 and 1 μM CGS during induction (FIGS. 2d and e)",the presence of IL-2 prevented the ability of CGS to induce anergy
same,ERK phosphorylation,"[2]; Signal 1+2, 1 μM CGS (FIG. 3d)",inhibited ERK phosphorylation
same,jun B expression in the nucleus,"[2]; T cell stimulation, 1 μM CGS (FIG. 3e)",reduced jun B expression
same,AP-1 binding (EMSA),"[2]; T cell stimulation, 1 μM CGS (FIG. 3f)",lowered AP-1 binding
